Data from patent US10144762B2, “Antibacterial antisense oligonucleotide and method” (priority 2005, dated 2018).
Converted amounts (≈) assume the structure as drawn. “And” between values parts separate entries of the source, which are not always exact repeats. Equal entries are not always repeated. Where two headings read alike, the source gives them in different places.

Key:
E. coli W3110 [1] = experiment: E. coli W3110 pure culture, CFU/ml and dose-response; type: cell-based
E. coli W3110 [2] = experiment: MIC, broth microdilution method of the Clinical and Laboratory Standards Institute; type: cell-based; details: Escherichia coli, read-out: minimum inhibitory concentration (MIC)
[3] = system: E. coli AS19 (pT7myc-luc); type: in vivo; details: mice; for CFU/ml (×10^6): peritoneal lavage
luciferase transcript [4] = system: luciferase transcript; design: species or system firefly; details: in vivo
luciferase transcript [5] = experiment: Western blot of luciferase protein normalized to OmpA in peritoneal lavage bacteria; type: in vivo, firefly; design: Western Blot % Inhibition (luciferase protein): concentration or dose not given beside the values; details: for Western Blot % Inhibition (luciferase protein): compared to nonsense PMO-treated mice; for Western Blot Luc/OmpA Mean: n = 7-8
E. coli AS19 = type: cell-based

IC50 (E. coli W3110 [1]; Escherichia coli, E. coli W3110 pure culture (FIG. 14), read-out: IC50 (50% inhibitory concentration)) [µM] | MIC (E. coli W3110 [2]) [µM] | Compound | antibacterial activity (CFU/ml after 8 hours) (E. coli W3110 [1]; E. coli W3110 (FIG. 13)) | CFU/ml (×10^6) ([3]; 13 h after treatment) | CFU/ml (×10^6) ([3]; 22 h after treatment) | inhibition of growth compared to nonsense PMO treatment ([3]; treated at 0 and 13 hours post-infection) | Luciferase Activity % Inhibition (luciferase transcript [4]) | Luciferase Activity RLU/CFU Mean (luciferase transcript [4]) | Western Blot % Inhibition (luciferase protein) (luciferase transcript [5]; 13 h) [%] | Western Blot Luc/OmpA Mean (luciferase transcript [5]; 13 h after treatment) | Western Blot % Inhibition (luciferase protein) (luciferase transcript [5]; 22 h) [%] | Western Blot % Inhibition (luciferase protein) (luciferase transcript [5]; 22 h, listed as luc PMO) [%] | Western Blot Luc/OmpA Mean (luciferase transcript [5]; 22 h after treatment) | growth monitored by optical density (E. coli AS19) | viable cells (CFU/ml) (E. coli AS19)
7.7 | 10 (≈ 3.49 µg/mL) | CC1(C)S[C@@H]2[C@H](NC(=O)[C@H](N)c3ccccc3)C(=O)N2[C@H]1C(=O)O [ampicillin] | showed antibacterial activity | – | – | – | – | – | – | – | – | – | – | – | –
– | – | Luc: PMO complementary to the region around the start codon of the luciferase transcript, ACG TTG AGG C, SEQ ID NO 77 (antisense ACGTTGAGGC; all phosphorodiamidate morpholino (PMO)) | – | 6.3 ×10^6 CFU/ml | 0.96 ×10^6 CFU/ml | no inhibition of growth | 53% and 46% | 3.20 RLU/CFU and 2.90 RLU/CFU | 68 | 0.122 | 57 | 47 | 0.147 | – | –
– | – | Nonsense: nonsense PMO control for luc PMO, TCC ACT TGC C, SEQ ID NO 78 (TCCACTTGCC; all phosphorodiamidate morpholino (PMO)) [reference compound] | – | 4.3 ×10^6 CFU/ml | 0.39 ×10^6 CFU/ml | – | – | 6.19 RLU/CFU and 8.12* RLU/CFU | 0 | 0.382 | 0 | – | 0.339 | – | –
– | – | PMO 62-4: acpP-14mer PMO, TC GAT AGT GCT CAT, SEQ ID NO 65 (antisense TCGATAGTGCTCAT; all phosphorodiamidate morpholino (PMO)) | – | – | – | – | – | – | – | – | – | – | – | statistically insignificant inhibitions | significantly reduced
